# Tests used:
# Format in all cases: cell-based
# IL-23 induced pSTAT3 = assay: IL-23-induced pSTAT3 in human whole blood (lymphocytes); settings: Lymphocyte, JAK2/TYK2, read-out: IL-23 induced pSTAT3, cellular potency IC50
# Experimental: (§1) Human whole blood was collected from healthy donors via vein puncture into Vacutainer collection tubes containing sodium heparin in accordance with Pfizer protocols (Protocol No. GOHW RDP-01) approved by the Shulman Institutional Review Board. Blood was warmed to 37° C. priorto use. Human whole blood was aliquoted (90 μL/well) in 96-well, deep-well, V-bottom plates and treated with compounds (5 μL/well) at different concentrations up to 60 μM (0.2% DMSO final) at 37° C. for 60 minutes. This was followed by a challenge with IFNα (5000 U/mL), IFNγ (100 ng/mL), IL-6 (50 ng/mL), IL-10 (30 ng/mL), IL-12 (30 ng/mL), IL-15 (30 ng/mL), IL-21 (50 ng/mL), IL-23 (25 ng/mL), IL-27 (1000 ng/mL), EPO (2 U/mL), TSLP (50 ng/mL) or PBS and incubated for 15 minutes. Anti-cell surface antibodies were added 15 minutes prior to cytokine stimulation; anti-CD3-BV421 (0.5 μL/well) to IL-6-treated and TSLP-treated samples and anti-CD14-BV421 (0.5 μL/well) to IFNγ-treated samples. Samples were treated with warm 1×Lyse/Fix buffer (700 μL/well) to terminate activation and further incubated at 37° C. for 20 minutes to lyse red blood cells. Plates were centrifuged at 300×g for 5 minutes, supernatant was aspirated, and cells were washed with 800 μL/well of staining buffer (D-PBS containing 0.1% FBS and 0.01% sodium azide). Washed cell pellets were resuspended in 350 μL/well of prechilled 90% methanol and incubated at 4° C. for 30 minutes. After the removal of 90% methanol, cells were washed once with staining buffer. All samples were finally suspended in 150 μL/well of the desired anti-phospho-STAT antibodies at 1:150 dilution in staining buffer; anti-pSTAT1-AF647 in IFNγ treated samples; anti-pSTAT1-AF488 and anti-pSTAT3-AF647 in IL-6-treated samples, anti-pSTAT3-AF647 in IFNα, IL-10, IL-21, IL-23 and IL-27 treated samples, anti-pSTAT4-AF647 in IL-12 treated samples, anti-pSTAT5-AF-647 in EPO, IL-15 and TSLP-treated samples. Human primary keratinocytes were cultured in DermaLife™ medium with supplement kit to expand cell population. Cell passages 2 to 5 were used in the assays. Cells were harvested at ˜80% confluence, suspended in warm DermaLife™ medium, aliquoted (90 μL/well) in 96-well, deep-well, V-bottom plates, and incubated at 37° C. for 30 minutes. Cells were then treated with compounds (0.0003 to 20 μM) for 60 minutes and followed by stimulation with IL-4 (2 ng/mL) or IL-13 (20 ng/mL) at 37° C. for 15 minutes. […]
# (§2) After overnight incubation at 4° C., anti-pSTAT stained samples were transferred into 96-well polypropylene U-bottom plates and flow cytometric analysis was performed on a LSR Fortessa™ equipped with a HTS plate loader. […] Background fluorescence was defined using unstimulated cells and a gate was placed at the foot of the peak to include ˜0.5% gated population. […]
# IL-10 induced pSTAT3 = assay: IL-10-induced pSTAT3 in human whole blood (lymphocytes); settings: Lymphocyte, JAK1/TYK2, read-out: IL-10 induced pSTAT3, cellular potency IC50
# Experimental: as §1, §2
# IL-27 induced pSTAT3 = assay: IL-27-induced pSTAT3 in human whole blood (lymphocytes); settings: Lymphocyte, JAK1/JAK2, read-out: IL-27 induced pSTAT3, cellular potency IC50
# Experimental: as §1, §2
# IL-13 induced pSTAT6 = assay: IL-13-induced pSTAT6 in human keratinocytes; settings: Keratinocyte, JAK1/JAK2, read-out: IL-13 induced pSTAT6, cellular potency IC50
# Experimental: (§3) Human whole blood was collected from healthy donors via vein puncture into Vacutainer collection tubes containing sodium heparin in accordance with Pfizer protocols (Protocol No. GOHW RDP-01) approved by the Shulman Institutional Review Board. Blood was warmed to 37° C. priorto use. Human whole blood was aliquoted (90 μL/well) in 96-well, deep-well, V-bottom plates and treated with compounds (5 μL/well) at different concentrations up to 60 μM (0.2% DMSO final) at 37° C. for 60 minutes. This was followed by a challenge with IFNα (5000 U/mL), IFNγ (100 ng/mL), IL-6 (50 ng/mL), IL-10 (30 ng/mL), IL-12 (30 ng/mL), IL-15 (30 ng/mL), IL-21 (50 ng/mL), IL-23 (25 ng/mL), IL-27 (1000 ng/mL), EPO (2 U/mL), TSLP (50 ng/mL) or PBS and incubated for 15 minutes. Anti-cell surface antibodies were added 15 minutes prior to cytokine stimulation; anti-CD3-BV421 (0.5 μL/well) to IL-6-treated and TSLP-treated samples and anti-CD14-BV421 (0.5 μL/well) to IFNγ-treated samples. Samples were treated with warm 1×Lyse/Fix buffer (700 μL/well) to terminate activation and further incubated at 37° C. for 20 minutes to lyse red blood cells. Plates were centrifuged at 300×g for 5 minutes, supernatant was aspirated, and cells were washed with 800 μL/well of staining buffer (D-PBS containing 0.1% FBS and 0.01% sodium azide). Washed cell pellets were resuspended in 350 μL/well of prechilled 90% methanol and incubated at 4° C. for 30 minutes. After the removal of 90% methanol, cells were washed once with staining buffer. […]
# as §2
# IL-22 induced pSTAT3 = assay: IL-22-induced pSTAT3 in human keratinocytes; settings: Keratinocyte, JAK1/TYK2, read-out: IL-22 induced pSTAT3, cellular potency IC50
# IL-6 induced pSTATI = assay: IL-6-induced pSTAT1 in human whole blood (CD3+ cells); settings: JAK1/JAK2, read-out: IL-6 induced pSTATI, cellular potency IC50
# Experimental: as §1, §2
# IL-31 induced pSTAT3 = assay: IL-31-induced pSTAT3 in IFNγ-primed THP-1 cells; settings: Homo sapiens, JAK1/JAK2, read-out: IL-31 induced pSTAT3, cellular potency IC50
# Experimental: THP-1 cells were maintained in RPMI 1640 medium containing 10% FBS, 50 μM 2 mercaptoethanol, 50 U/mL penicillin, 50 µg/mL streptomycin and 2 mM L-glutamine. THP 1 cells were treated with IFNγ (20 ng/mL) for 18 hours. IFNγ primed THP-1 cells were resuspended in fresh RPMI 1640 medium, treated with compounds (0.0003 to 20 μM) for 60 minutes, followed by stimulation with IL-31 (1 μg/mL) for additional 10 minutes. Cells were then fixed by 2% paraformaldehyde and permeabilized by 90% methanol. Fixed and permeabilized cells were stained with AlexaFluor647™ labeled anti-pSTAT3 antibody (1 to 150 dilution).
# After overnight incubation at 4° C., anti-pSTAT stained samples were transferred into 96-well polypropylene U-bottom plates and flow cytometric analysis was performed on a LSR Fortessa™ equipped with a HTS plate loader. For human whole blood samples, lymphocyte population was gated for pSTAT histogram analysis for IFNα, IL-10, IL-12, IL-15, IL-21, IL-23, and IL-27-treated samples; CD14^+ cells for IFNγ-treated samples; CD3^+ cells for IL-6 and TSLP-treated samples; all events (entire populations) for EPO-treated samples. Entire populations of keratinocytes and THP-1 cells were gated for the IL-4, IL-13, IL-22 and IL-31 assays. Background fluorescence was defined using unstimulated cells and a gate was placed at the foot of the peak to include ˜0.5% gated population. Histogram statistical analysis was performed using FACSDiva version 8.0. Relative fluorescence unit, which measures the level of pSTAT, was calculated by multiplying the percent positive population and its mean fluorescence. Inhibition curves and half maximal inhibitory concentration (IC50) values were determined using Prism™ software (Version 8) or the Activity Base data analysis software (ID Business Solutions).
# IL-21 induced pSTAT3 = assay: IL-21-induced pSTAT3 in human whole blood (lymphocytes); settings: Lymphocyte, JAK1/JAK3, read-out: IL-21 induced pSTAT3, cellular potency IC50
# Experimental: as §1, §2
# IL-15 induced pSTAT5 = assay: IL-15-induced pSTAT5 in human whole blood (lymphocytes); settings: Lymphocyte, JAK1/JAK3, read-out: IL-15 induced pSTAT5, cellular potency IC50
# Experimental: as §1, §2
# IFNg induced pSTATI = assay: IFNγ-induced pSTAT1 in human whole blood (CD14+ cells); settings: JAK1/JAK2, read-out: IFNg induced pSTATI, cellular potency IC50
# Experimental: as §1, §2
# TSLP induced pSTAT5 = assay: TSLP-induced pSTAT5 in human whole blood (CD3+ cells); settings: JAK1/JAK2, read-out: TSLP induced pSTAT5, cellular potency IC50
# Experimental: as §3, §2
# IL-4 induced pSTAT6 = assay: IL-4-induced pSTAT6 in human keratinocytes; settings: Keratinocyte, JAK1/JAK2, read-out: IL-4 induced pSTAT6, cellular potency IC50
# Experimental: as §3, §2
# EPO induced pSTAT5 = assay: EPO-induced pSTAT5 in human whole blood (all events); settings: JAK2/JAK2, read-out: EPO induced pSTAT5, cellular potency IC50
# Experimental: as §1, §2
structure (smiles),measurement,setting,value
"CCCS(=O)(=O)N[C@H]1C[C@@H](N(C)c2ncnc3[nH]ccc23)C1 [Abrocitinib, N-((1S,3S)-3-(Methyl(7H-pyrrolo[2,3-d]pyrimidin-4-yl)amino)cyclo-butyl)propane-1-sulfonamide, reference compound]",IC50,IL-23 induced pSTAT3,> 16500 nM
same,IC50,IL-10 induced pSTAT3,3700 nM
same,IC50,IL-27 induced pSTAT3,228 nM
same,IC50,IL-13 induced pSTAT6,81.9 nM
same,IC50,IL-22 induced pSTAT3,420 nM
same,IC50,IL-6 induced pSTATI,343 nM
same,IC50,IL-31 induced pSTAT3,40 nM
same,IC50,IL-21 induced pSTAT3,516 nM
same,IC50,IL-15 induced pSTAT5,537 nM
same,IC50,IFNg induced pSTATI,1690 nM
same,IC50,TSLP induced pSTAT5,1020 nM
same,IC50,IL-4 induced pSTAT6,77 nM
same,IC50,EPO induced pSTAT5,7180 nM

# From patent US20230219963A1, “PYRROLO[2,3-D]PYRIMIDINE DERIVATIVES” (Pfizer Inc., priority 2020, published 2023)
